The values below are quoted from earlier work in patent US8039024B2, “Device and composition for the delivery of a preservative-free balsamic cream” (APR Applied Pharma Research, S.A., priority 2008, dated 2011).

Each structure is given as a SMILES string.

The conditions of the data set: sprayed directly onto the nasal mucosa of dogs and humans.

Take `CC12CCC(CC1=O)C2(C)C` (centres unmarked) [camphor, Camphor]: the decongestant action entry is “no decongestant action”.
Take `CC1CCC(C(C)C)C(O)C1` (centres unmarked) [menthol, Menthol]: the decongestant action result is “no decongestant action”.
